Assay results published in publication PMC6669322, “Small Molecule Binding to Alzheimer Risk Factor CD33 Promotes Aβ Phagocytosis” (iScience, 2019).

Columns and labels:
[1] = target: T1, CD33 Y127A (Homo sapiens, UniProt P20138, Y127A); test: SNAP-tag homogeneous time-resolved fluorescence binding assay, CD33 Y127A; details: Y127A variant, in words
T1 construct: human CD33 ORF (NM_001772.3), lacking its signal peptide; expressed in transfected cells; host or cells: HEK293T, transient, pT8-SNAP vector
T1 sequence (P20138 18-364 Y127A): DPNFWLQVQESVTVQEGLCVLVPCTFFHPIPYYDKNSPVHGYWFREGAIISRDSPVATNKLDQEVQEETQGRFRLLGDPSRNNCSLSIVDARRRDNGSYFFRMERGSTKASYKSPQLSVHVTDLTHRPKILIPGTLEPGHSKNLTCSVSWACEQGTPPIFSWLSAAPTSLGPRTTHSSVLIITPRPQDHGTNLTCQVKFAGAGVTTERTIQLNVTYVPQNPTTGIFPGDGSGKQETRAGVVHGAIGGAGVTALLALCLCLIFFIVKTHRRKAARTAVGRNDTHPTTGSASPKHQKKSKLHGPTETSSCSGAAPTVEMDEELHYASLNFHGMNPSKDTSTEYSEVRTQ
Experimental: Figure 3 P22 Binding to CD33 Wild-Type and Mutants (A) An example of affinity analysis for 1–243 μM (3-fold dilutions) of P22 binding to immobilized CD33^C36S. Data obtained in duplicate using single-cycle analysis and fit to a steady-state binding model to determine the equilibrium binding constant. (B) An example of affinity analysis of P22 binding to immobilized CD33 wild-type (WT) as per example in (A). (C) Sensorgram data for 0.01–9 μM (3-fold dilutions) of CD33^C36S binding to immobilized P22. Data obtained in triplicate using single concentration cycles and fit to a 1:1 binding model for kinetic analysis. […]
We then used our structural data to design mutations of key residues interacting with P22 to assess which interactions were the most important for binding affinity. The residues were mutated into alanine, and the effect of these mutations on P22 binding affinity was assessed using a SNAP-tag homogeneous time-resolved fluorescence binding assay (see Transparent Methods and Figures 3E–3G). […]
HEK293T cells were cultured in DMEM (ThermoFisher Scientific # 11965092) containing 10% FBS (Hyclone # SH30070.03) and 1% Penicillin-Streptomycin (ThermoFisher Scientific # 15140122) and transfected using Fugene HD (Promega # E2312) in 10 cm plates. […] The cells were counted, centrifuged and resuspended in PBS at a concentration of 1,000 cells/μL and 10 μL were plated into each well. […]

[2] = test system: human CD33; design: method as in Rillahan et al., 2014; details: in words; ref Rillahan et al., 2014; cited from earlier work

Cc1cc(C(=O)NC[C@@H](O)[C@@H](O)[C@@H]2O[C@@](OC[C@H]3O[C@@H](O[C@H]4[C@H](O)[C@@H](O)[C@H](OCCN)O[C@@H]4CO)[C@H](O)[C@@H](O)[C@H]3O)(C(=O)O)C[C@H](O)[C@H]2NC(=O)Cn2cc(C3CCCCC3)nn2)cc(C)c1O [P22, β-D-Glucopyranoside, 2-aminoethyl O-[N-[2-(4-cyclohexyl-1H-1,2,3-triazol-1-yl)acetyl]-9-deoxy-9-[(4-hydroxy-3,5-dimethylbenzoyl)amino]-α-neuraminosyl] (2→6)-O-β-D-galactopyranosyl-(1→4)-]
specific binding (total binding – binding in presence of 100 μM non-labeled P22) [1]: completely abolished
specificity for human CD33 over other human Siglecs [2]: high specificity
